Results taken from US20060079453A1, “Hla binding peptides and their uses” (priority 2002, published 2006).
Where two headings read alike, the source gives them in different places. No end group written: not given here.

Key:
Assay in all cases: biochemical
Format in all cases: binding
HLA-DR DRB1*0401 (DR4) = HLA-DR DRB1*0401 (DR4) (Homo sapiens, UniProt P01903+P01911, A100K/A169T/F76Y/I96L/K127E/L162R/M171V/N62H/P40V/Q125Y/R42H/S133A/S149N/S66Y/V115G/V209L/W38E)
HLA-DR DRB1*0405 (DR4) = HLA-DR DRB1*0405 (DR4) (Homo sapiens, UniProt P01903+P01911, A100R/A169T/D86S/F76Y/I96L/K127E/L162R/M171V/N62H/P40V/Q125Y/R42H/S133A/S149N/S66Y/V115G/V209L/W38E)
HLA-DR DRB1*0101 (DR1) = HLA-DR DRB1*0101 (DR1) (Homo sapiens, UniProt P01903+P01911, A100R/D57E/F55L/F60I/F76Y/I96L/L162R/M171V/P40L/Q125E/R42F/V115G/Y59C)
HLA-DR DRB1*0901 (DR9) = HLA-DR DRB1*0901 (DR9) (Homo sapiens, UniProt P01903+P01911, A100R/A103E/D57H/D86V/F55Y/F60I/F76Y/I96F/K127E/L162R/M171V/P40D/Q125H/Q99R/R33Q/R42F/S133A/S66N/T210M/V115G/W38K/Y107V/Y59G/Y89S)
HLA-DR DRB4*0101 (DR53) = HLA-DR DRB4*0101 (DR53) (Homo sapiens, UniProt P01903+P13762, G164S); settings: DRB4 *0101
HLA-DR DRB1*0701 (DR7) = HLA-DR DRB1*0701 (DR7) (Homo sapiens, UniProt P01903+P01911, A100R/A102G/A103Q/D57E/D86V/E43K/F76Y/K127E/L162R/M171V/P40G/Q125H/Q99D/R33Q/R42Y/R54Q/S133A/S66F/T210M/V115G/Y107V/Y59L/Y89S)
HLA-DR DRB1*0301 (DR3) = HLA-DR DRB1*0301 (DR3) (Homo sapiens, UniProt P01903+P01911, A100K/A102G/A103R/A169T/F55Y/I96L/K41T/L162R/M171V/P40S/Q125H/Q178H/Q39Y/R42S/S66N/T106N/T262R/W38E/Y61H)
HLA-DR DRB1*1302 (DR13) = HLA-DR DRB1*1302 (DR13) (Homo sapiens, UniProt P01903+P01911, A100E/A169T/K41T/L162R/M171V/P40S/Q125H/Q178H/Q39Y/Q99D/R42S/S66N/T262R/V115G/W38E/Y61H); settings: DRBI *1302
HLA-DR DRB1*1501 (DR15) = HLA-DR DRB1*1501 (DR15) (Homo sapiens, UniProt P01903+P01911); settings: DRBI *1501
HLA-DR DRB5*0101 (DR51) = HLA-DR DRB5*0101 (DR51) (Homo sapiens, UniProt P01903+Q30154); settings: DRB5 *0101
HLA-DR DRB1*1101 (DR11) = HLA-DR DRB1*1101 (DR11) (Homo sapiens, UniProt P01903+P01911, A100R/A169T/A87E/I96F/K41T/L162R/M171V/P40S/Q125H/Q178H/Q39Y/Q99D/R42S/S66Y/T262R/V115G/W38E); settings: DRB1 *1101
Chain of HLA-DR DRB1*1101 (DR11) (P01903 26-254 limits assumed, other chains not shown): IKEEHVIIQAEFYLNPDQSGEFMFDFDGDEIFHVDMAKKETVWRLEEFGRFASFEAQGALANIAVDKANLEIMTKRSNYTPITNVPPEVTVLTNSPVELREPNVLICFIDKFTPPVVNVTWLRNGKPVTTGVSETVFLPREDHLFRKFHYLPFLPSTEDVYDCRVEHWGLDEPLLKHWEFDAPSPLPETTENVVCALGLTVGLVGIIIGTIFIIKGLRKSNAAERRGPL

Chain of HLA-DR DRB1*0301 (DR3) (P01903 26-254 limits assumed, other chains not shown): as above
Chain of HLA-DR DRB1*1302 (DR13) (P01903 26-254 limits assumed, other chains not shown): as above

Row | Compound | IC50 (HLA-DR DRB1*0401 (DR4); DRB1 *0401) [µM] | IC50 (HLA-DR DRB1*0405 (DR4); DRB1 *0405) [µM] | IC50 (HLA-DR DRB1*0101 (DR1); DRB1 *0101) [µM] | IC50 (HLA-DR DRB1*0901 (DR9); DRB1 *0901) [µM] | IC50 (HLA-DR DRB4*0101 (DR53)) [µM] | IC50 (HLA-DR DRB1*0701 (DR7); DRB1 *0701) [µM] | IC50 (HLA-DR DRB1*0301 (DR3)) [µM] | IC50 (HLA-DR DRB1*1302 (DR13)) [µM] | IC50 (HLA-DR DRB1*1501 (DR15)) [µM] | IC50 (HLA-DR DRB5*0101 (DR51)) [µM] | IC50 (HLA-DR DRB1*0405 (DR4); read-out: DRB1 *0405) [µM] | IC50 (HLA-DR DRB1*0901 (DR9); read-out: DRB1 *0901) [µM] | IC50 (HLA-DR DRB1*0701 (DR7); read-out: DRB1 *0701) [µM] | IC50 (HLA-DR DRB1*0301 (DR3); read-out: DRB1 *0301) [µM] | IC50 (HLA-DR DRB1*1101 (DR11)) [µM] | IC50 (HLA-DR DRB1*0401 (DR4); read-out: DRB1 *0401) [µM] | IC50 (HLA-DR DRB1*0101 (DR1); read-out: DRB1 *0101) [µM]
1 | CC[C@H](C)[C@H](N)C(=O)N[C@@H](CCCNC(=N)N)C(=O)N[C@H](C(=O)N[C@@H](CC(C)C)C(=O)N[C@@H](CCC(=O)O)C(=O)N[C@@H](CC(=O)O)C(=O)N[C@@H](CC(C)C)C(=O)N[C@@H](CC(C)C)C(=O)N[C@@H](CCSC)C(=O)NCC(=O)N[C@H](C(=O)N[C@@H](CC(C)C)C(=O)NCC(=O)N[C@H](C(=O)N[C@H](C(=O)O)C(C)C)[C@@H](C)CC)[C@@H](C)O)[C@@H](C)O | 0.095 | 0.061 | 0.016 | 1.72 | 0.023 | 0.895 | 5.21 | 0.789 | – | – | – | – | – | – | – | – | –
2 | CC[C@H](C)[C@H](NC(=O)[C@H](CCC(=O)O)NC(=O)[C@H](CC(C)C)NC(=O)[C@H](C)NC(=O)[C@H](CO)NC(=O)[C@H](CO)NC(=O)[C@H](CC(C)C)NC(=O)[C@H](CCC(=O)O)NC(=O)[C@H](Cc1c[nH]cn1)NC(=O)[C@H](CC(C)C)NC(=O)[C@H](CCCCN)NC(=O)[C@H](CCCNC(=N)N)NC(=O)[C@@H]1CCCN1)C(=O)N1CCC[C@H]1C(=O)N[C@@H](Cc1ccc(O)cc1)C(=O)O | 5.28 | 0.08 | – | 0.213 | – | – | 16.1 | 0.051 | 1.12 | > 10.7 | – | – | – | – | – | – | –
3 | CSNLSTCVLQKLSQE | – | – | – | – | – | – | – | – | – | – | 5.34 | 7.23 | 31.8 | > 205 | – | – | –
4 | DFAFADLTVVYREGN | 0.141 | 0.06 | 3.29 | 0.322 | 18 | 1.73 | – | 9.63 | 4.92 | 39.8 | – | – | – | – | > 18 | – | –
5 | DFAFTDLTIVYRDDT | 0.08 | 0.04 | – | 1.44 | 21.6 | – | 0.023 | 5.01 | 3.65 | 0.675 | – | – | – | – | – | – | –
6 | DLRVVQQLLMGALTV | – | 0.084 | 0.0084 | 1.84 | 0.0095 | 0.508 | 26 | 0.057 | – | – | – | – | – | – | – | – | –
7 | FVVYRDSIPHAACHK | 0.01 | 0.704 | 0.587 | 2.12 | 18.1 | – | 0.2 | 1.85 | 0.349 | 2.34 | – | – | – | – | – | – | –
8 | LRVVQQLLMGALTVT | – | 0.085 | 0.0057 | 0.204 | 0.0077 | 0.082 | 21.7 | 0.0089 | 0.056 | – | – | – | – | – | – | – | –
9 | LSFFLKEKGGLDGL | – | – | – | – | – | – | – | – | – | – | 0.983 | 3.5 | 20 | > 341 | – | – | –
10 | LTIVYRDDTPHGVCT | – | – | – | – | – | – | – | – | – | – | > 8.59 | > 25.3 | > 72.3 | 0.187 | – | 0.023 | > 15.4
11 | MLDLQPETTDLYCYE | – | – | – | – | – | – | – | – | – | – | 4.25 | > 32.2 | > 72.3 | 0.72 | – | 1.91 | –
12 | QDYVLDLQPEATDLH | 0.253 | 5.59 | 13.4 | > 39.9 | 1.85 | > 18.6 | – | > 11.5 | > 62.8 | > 22.9 | – | – | – | – | > 11.9 | – | –
13 | RETLQEIVLHLEPQN | 2.94 | 0.829 | 1.59 | 19.1 | 0.095 | 25.9 | – | 11.4 | 16.2 | > 55.1 | – | – | – | – | 7.9 | – | –
14 | RLFDNAMLRAHRL | – | – | – | – | – | – | – | – | – | – | 4.25 | > 59.5 | 3.3 | 0.027 | – | 6.29 | 0.0023
15 | TIVYRDDTPHGVCTK | – | > 9.75 | 3.8 | > 39.1 | > 21.5 | > 35.6 | – | 6.28 | 5.45 | > 62.3 | – | – | – | – | > 18 | – | –
16 | VYDFVFADLRIVYRD | – | – | – | – | – | – | – | – | – | – | 0.717 | 0.198 | – | 0.0022 | – | 0.475 | 0.098
